# Laboratory results: paper PMC10079235 (PLOS Neglected Tropical Diseases, 2023)
# Structures can show the parent of a compound that is named as a salt. Where two headings read alike, the source gives them in different places.
# Legend:
# HCT-8/NC cells [1] = assay: MTS cytotoxicity (drug tolerance) assay; settings: no drug selection
# HCT-8/MDR1 cells = assay: MTS cytotoxicity (drug tolerance) assay; settings: for TC50: MDR1 cells, no drug selection, MTS assay
# HCT-8/WT(NTZ) cells = assay: MTS cytotoxicity (drug tolerance) assay
# Protocol: (§1) Host cell drug tolerance to specified inhibitors was evaluated by 3-(4,5-dimethylthiazol-2-yl)-5-(3-carboxymethoxyphenyl)-2-(4-sulfophenyl)-2H-tetrazolium (MTS) assay. WT and transgenic host cells were seeded in 96-well plates (10,000 cells/well) and cultured for 24 h, followed by the addition of specified compounds at serially diluted concentrations and continued culture for 41 h. After 3 washes with serum-free medium, MTS solution (Saint-Bio, Shanghai, China) was added into the plates (20 μL/well) and incubated at 37°C for 2 h. Optical density at 490 nm (OD490) was measured using a Synergy LX multi-mode reader (BioTek, Winooski, VT). Drug tolerance was indicated by half-maximal cytotoxic concentrations (TC50 values) calculated by nonlinear regression using 4PL model. Selectivity index (SI) for each compound was determined by the ratio between TC50 and EC50 values (SI = TC50/EC50).
# (§2) Surviving cells were allowed to recover in drug-free medium for 3–5 d to near confluence (round 1). The selection/recovery cycle were repeated once (round 2). […] Finally, all cells were cultured at the final selection concentrations of PTX or NTZ for ≥7 d, followed by culture in drug-free medium for 14 d. At this time point, cells were used for cytotoxicity and efficacy assays or cryopreserved in a liquid nitrogen tank. The resulting cell lines after PTX or NTZ selection were designated as WT(PTX), NC(PTX) and MDR1(PTX), or WT(NTZ), NC(NTZ) and MDR1(NTZ), respectively (Tables 1 and S2).
# HCT-8/NC(NTZ) cells = assay: MTS cytotoxicity (drug tolerance) assay
# Protocol: as §1, §2
# HCT-8/WT(PTX) cells = assay: MTS cytotoxicity (drug tolerance) assay
# Protocol: as §1
# (§3) Surviving cells were allowed to recover in drug-free medium for 3–5 d to near confluence (round 1). The selection/recovery cycle were repeated once (round 2). […] The resulting cell lines after PTX or NTZ selection were designated as WT(PTX), NC(PTX) and MDR1(PTX), or WT(NTZ), NC(NTZ) and MDR1(NTZ), respectively (Tables 1 and S2).
# HCT-8/WT cells = assay: MTS cytotoxicity (drug tolerance) assay; settings: WT cells, no drug selection; MTS assay
# Protocol: as §1
# Cryptosporidium parvum = assay: Anti-cryptosporidial efficacy assay (44-h infection/qRT-PCR); settings: for EC50: Cryptosporidium parvum; for On-target (Eon) rate at EC50: Eq 2; for Eoff, proportion of off-parasite-target effect / Eon, proportion of on-parasite-target effect: MDR1(PTX) vs. NC model, Eq 3 and 4
# HCT-8/NC(PTX) cells = assay: MTS cytotoxicity (drug tolerance) assay
# Protocol: as §1, §3
# HCT-8/MDR1(NTZ) cells = assay: MTS cytotoxicity (drug tolerance) assay
# Protocol: as §1, §3
# HCT-8/NC cells [2] = settings: human, 41 h
# HCT-8/MDR1(PTX) cells = settings: for Pct change of TC50 (vs NC): MDR1(PTX) vs NC cells
# Protocol: as §1, §3
# [3] = after selection by NTZ vs parent cell line
# [4] = after selection by PTX vs parent cell line
compound,measurement,setting,value
"CN(C)C(=O)C(CCN1CCC(O)(c2ccc(Cl)cc2)CC1)(c1ccccc1)c1ccccc1 [Loperamide, Loperamide HCl]",TC50,HCT-8/NC cells [1],16.08 µM
same,TC50,HCT-8/MDR1 cells,16.49 µM
same,TC50,"HCT-8/WT(NTZ) cells; WT(NTZ) cells, after selection by NTZ",16.23 µM
same,TC50,"HCT-8/NC(NTZ) cells; NC(NTZ) cells, after selection by NTZ",15.64 µM
same,TC50,"HCT-8/WT(PTX) cells; WT(PTX) cells, after selection by PTX",16.42 µM
same,TC50,HCT-8/WT cells,15.96 µM
"O=C1c2c(O)ccc(O)c2C(=O)c2c(NCCNCCO)ccc(NCCNCCO)c21 [Mitoxantrone, Mitoxantrone 2HCl]",TC50,HCT-8/MDR1 cells,6.79 µM
same,Fold change of TC50 MDR1/NC,"HCT-8/MDR1 cells; ratio of TC50, MDR1 vs NC cells",1.65
same,Fold increase of TC50 WT(NTZ) vs. WT,HCT-8/WT(NTZ) cells; [3],0.96
same,TC50,"HCT-8/WT(NTZ) cells; human, 41 h",4.15 µM
same,Fold increase of TC50 NC(NTZ) vs. NC,HCT-8/NC(NTZ) cells; [3],1.02
same,TC50,"HCT-8/NC(NTZ) cells; human, 41 h",4.19 µM
same,EC50,"Cryptosporidium parvum; MDR1, read-out: Antiparasitic efficacy (EC50), C. parvum cultured in MDR1(PTX) host cells",4.16 µM
same,EC50,"Cryptosporidium parvum; read-out: Antiparasitic efficacy (EC50), C. parvum cultured in NC host cells",2.04 µM
same,EC50,"Cryptosporidium parvum; read-out: Antiparasitic efficacy (EC50), C. parvum cultured in WT host cells",2.07 µM
same,On-target (Eon) rate at EC50,Cryptosporidium parvum; MDR1(PTX) cell model,39.8%
same,On-target (Eon) rate at EC50,"Cryptosporidium parvum; MDR1(PTX) cell model, listed as MXT",39.8%
same,Off-target (Eoff) rate at EC50,"Cryptosporidium parvum; MDR1(PTX) cell model, from Pct changes of EC50 and TC50 (Eq 1)",60.2%
same,Action on parasite target (on-target) conclusion,Cryptosporidium parvum; MDR1-transgenic host cell model,partially on-target
same,Selectivity index (SI),Cryptosporidium parvum; TC50/EC50 in MDR1(PTX) cells,2.69
same,Selectivity index (SI),Cryptosporidium parvum; TC50/EC50 in NC cells,2.01
same,"Selectivity index (SI, k)",Cryptosporidium parvum; TC50/EC50 in WT cells,2.08
same,"Eoff, proportion of off-parasite-target effect",Cryptosporidium parvum; at EC10,39.80%
same,"Eon, proportion of on-parasite-target effect",Cryptosporidium parvum; at EC10,60.20%
same,"Eoff, proportion of off-parasite-target effect",Cryptosporidium parvum; at EC20,47.10%
same,"Eon, proportion of on-parasite-target effect",Cryptosporidium parvum; at EC20,52.90%
same,"Eoff, proportion of off-parasite-target effect",Cryptosporidium parvum; at EC30,52.00%
same,"Eon, proportion of on-parasite-target effect",Cryptosporidium parvum; at EC30,48.00%
same,"Eoff, proportion of off-parasite-target effect",Cryptosporidium parvum; at EC40,56.10%
same,"Eon, proportion of on-parasite-target effect",Cryptosporidium parvum; at EC40,43.90%
same,"Eoff, proportion of off-parasite-target effect",Cryptosporidium parvum; at EC50,60.0%
same,"Eon, proportion of on-parasite-target effect",Cryptosporidium parvum; at EC50,40.0%
same,"Eoff, proportion of off-parasite-target effect",Cryptosporidium parvum; at EC60,63.90%
same,"Eon, proportion of on-parasite-target effect",Cryptosporidium parvum; at EC60,36.10%
same,"Eoff, proportion of off-parasite-target effect",Cryptosporidium parvum; at EC70,68.20%
same,"Eon, proportion of on-parasite-target effect",Cryptosporidium parvum; at EC70,31.80%
same,"Eoff, proportion of off-parasite-target effect",Cryptosporidium parvum; at EC80,73.60%
same,"Eon, proportion of on-parasite-target effect",Cryptosporidium parvum; at EC80,26.40%
same,"Eoff, proportion of off-parasite-target effect",Cryptosporidium parvum; at EC90,81.90%
same,"Eon, proportion of on-parasite-target effect",Cryptosporidium parvum; at EC90,18.10%
same,Fold change of TC50 NC(PTX) vs. NC,HCT-8/NC(PTX) cells; [4],1.06
same,TC50,"HCT-8/NC(PTX) cells; human, 41 h",4.34 µM
same,TC50,"HCT-8/MDR1(NTZ) cells; MDR1(NTZ) cells, after selection by NTZ",6.74 µM
same,Fold increase of TC50 MDR1(NTZ) vs. NC,HCT-8/MDR1(NTZ) cells; after selection by NTZ,1.64
same,Fold increase of TC50 MDR1(NTZ) vs. MDR1,HCT-8/MDR1(NTZ) cells; [3],0.99
same,Fold change of TC50 WT(PTX) vs. WT,HCT-8/WT(PTX) cells; [4],0.98
same,TC50,"HCT-8/WT(PTX) cells; human, 41 h",4.23 µM
same,TC50,HCT-8/NC cells [2],4.11 µM
same,TC50,HCT-8/WT cells,4.31 µM
same,TC50,"HCT-8/MDR1(PTX) cells; MDR1(PTX) cells, after selection by PTX",11.21 µM
same,Pct change of TC50 (vs NC),HCT-8/MDR1(PTX) cells,172.7%
same,Pct change of TC50 (vs NC),HCT-8/MDR1(PTX) cells; listed as MXT,172.7%
same,Fold change of TC50 MDR1(PTX) vs. NC,HCT-8/MDR1(PTX) cells; after selection by PTX,2.73
same,Fold change of TC50 MDR1(PTX) vs. MDR1,HCT-8/MDR1(PTX) cells; [4],1.65
same,Fold change of TC50 MDR1(PTX)/NC(PTX),HCT-8/MDR1(PTX) cells; ratio of TC50,2.58
